Data as given in patent US20210261512A1, “NOVEL COMPOUNDS” (INFLAZOME LIMITED, priority 2018, published 2021).

Key:
NLRP3 [1] = biological target: T1, NLRP3 (Homo sapiens, UniProt Q96P20); assay: THP-1 cells pyroptosis assay; format: cell-based; design: Seed THP-1 cells (25,000 cells/well) containing 1.0 μg/ml LPS; host or cells: THP-1; conditions: LPS 1.0 μg/ml, nigericin 5 μM, resazurin readout, 10 μM top dose (Example 2: top dose of 30 μM)
Summary of the method: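 Pyroptosis induced by 5 μM nigericin (1 h) in LPS-primed (1 μg/ml) THP-1 cells, 25,000/well in serum-free RPMI, after 3 h compound pre-treatment (8 points, 10 μM top unless stated). Surviving cells measured with 100 μM resazurin, Ex 560/Em 590; IC50 via variable-slope 4-parameter regression.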

NLRP3 [2] = biological target: T1, NLRP3; assay: Human whole blood IL1β release assay; format: cell-based; conditions: LPS 1 μg/ml, nigericin 10 μM, IL-1β AlphaLisa, 10 μM top dose (Example 2: top dose of 30 μM), read-out: HWB IC50
Experimental: For systemic delivery, the ability to inhibit NLRP3 when the compounds are present within the bloodstream is of great importance. For this reason, the NLRP3 inhibitory activity of a number of compounds in human whole blood was investigated in accordance with the following protocol.
Human whole blood in sodium-heparin or lithium-heparin tubes was obtained from healthy donors from a volunteer donor panel. • 1. Plate out 80 μl of whole blood containing 1 μg/ml of LPS in 96-well, clear bottom cell culture plate (Corning #3585) • 2. Add 10 μl compound (8 points half-log dilution with 10 μM top dose, unless stated otherwise) or vehicle (DMSO 0.1% FAC) to the appropriate wells • 3. Incubate for 3 hrs at 37° C., 5% CO2 • 4. Add 10 μl nigericin (Sigma #N7143) (10 μM FAC) to all wells • 5. Incubate for 1 hr at 37° C., 5% CO2 • 6. At the end of the incubation period, spin plates at 300×g for 5 mins to pellet cells and remove 20 μl of supernatant and add to 96-well v-bottom plates for IL-1β analysis (note: these plates containing the supernatants can be stored at −80° C. to be analysed at a later date) • 7. IL-1β was measured according to the manufacturer protocol (Perkin Elmer-AlphaLisa IL-1 Kit AL220F-5000) • 8. IC50 data is fitted to a non-linear regression equation (log inhibitor vs response-variable slope 4-parameters)

[3] = PK, intravenous administration; format: in vivo; conditions: rat, plasma, male Sprague Dawley rats, dose about 1 mg/kg; for Vd: read-out: Vdss
Experimental: Pharmacokinetic parameters were determined in male Sprague Dawley rats (Vital River Laboratory Animal Technology Co Ltd, Beijing, China, 6-9 weeks old). Animals were maintained under a 12 h light/dark cycle. Animals had free access to food and water, except that orally dosed animals were food deprived overnight prior to the study.
For intravenous administration, compounds were formulated as a solution (in DMSO:water [10:90] or in DMSO:PBS [10:90]) in 2 mL/kg dosing volume and administered via tail vein. For oral administration, compounds were formulated as a solution (in 0.5% methylcellulose in water) in […] dosing volume and administered orally.
Serial blood samples (about 200 μL) were taken from each animal at each of 8 time-points post dose ([…], 0.25, 0.5, 1, 2, 4, 8 and 24 h). Samples were held on ice for no longer than 30 minutes before centrifugation (5,696 rpm (3,000 g) for 15 minutes) for plasma generation. Plasma was frozen on dry ice prior to bioanalysis. PK parameters were generated from LC-MS/MS data using Phoenix WinNonlin 6.3 software.

T1 sequence (Q96P20 whole entry): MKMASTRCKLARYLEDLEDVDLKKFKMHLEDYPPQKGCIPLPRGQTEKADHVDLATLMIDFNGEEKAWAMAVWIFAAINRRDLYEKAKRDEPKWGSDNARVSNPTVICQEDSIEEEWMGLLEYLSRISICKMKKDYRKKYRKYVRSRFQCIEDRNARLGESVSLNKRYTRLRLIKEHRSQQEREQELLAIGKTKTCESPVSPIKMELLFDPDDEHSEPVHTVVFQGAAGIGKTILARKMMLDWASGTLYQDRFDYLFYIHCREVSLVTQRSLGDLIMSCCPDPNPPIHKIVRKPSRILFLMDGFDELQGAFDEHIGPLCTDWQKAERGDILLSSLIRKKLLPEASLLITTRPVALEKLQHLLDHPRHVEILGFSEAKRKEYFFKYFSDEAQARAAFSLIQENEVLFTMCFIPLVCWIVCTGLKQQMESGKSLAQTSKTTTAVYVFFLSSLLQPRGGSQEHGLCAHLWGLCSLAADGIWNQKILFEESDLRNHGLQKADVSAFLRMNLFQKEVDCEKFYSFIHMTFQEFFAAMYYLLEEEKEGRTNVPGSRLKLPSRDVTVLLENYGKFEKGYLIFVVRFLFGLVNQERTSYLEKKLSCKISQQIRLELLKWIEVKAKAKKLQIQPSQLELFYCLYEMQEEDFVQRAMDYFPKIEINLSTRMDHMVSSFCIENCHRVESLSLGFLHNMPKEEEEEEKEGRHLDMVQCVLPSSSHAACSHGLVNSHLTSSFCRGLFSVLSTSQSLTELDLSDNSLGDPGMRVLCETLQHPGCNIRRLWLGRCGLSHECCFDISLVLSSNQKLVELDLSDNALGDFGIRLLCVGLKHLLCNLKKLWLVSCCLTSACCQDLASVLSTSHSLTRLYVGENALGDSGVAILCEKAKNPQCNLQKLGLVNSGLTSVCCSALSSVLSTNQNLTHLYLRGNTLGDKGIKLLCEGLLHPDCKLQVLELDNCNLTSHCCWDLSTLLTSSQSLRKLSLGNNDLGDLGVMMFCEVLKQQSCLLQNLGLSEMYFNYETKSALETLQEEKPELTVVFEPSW

SMILES | IC50 (NLRP3 [1]) [nM] | IC50 (NLRP3 [2]) [nM] | AUC [3] [ng·h/mL] | clearance [3] [mL/min/kg] | half-life [3] [min] | Vd [3] [L/kg]
CCN(CC)CCS(=O)(=O)c1nnc(Nc2c3c(cc4c2CCC4)CCC3)[nH]1 [Example 46, 5-((2-(diethylamino)ethyl)sulfonyl)-N-(1,2,3,5,6,7-hexahydro-s-indacen-4-yl)-4H-1,2,4-triazol-3-amine] | ≤ 1000 | ≤ 5000 |  |  |  | 
CN(C)C1CCN(S(=O)(=O)c2nnc(Nc3c4c(cc5c3CCC5)CCC4)[nH]2)C1 (stereo not shown) [Example 93, 5-((3-(dimethylamino)pyrrolidin-1-yl)sulfonyl)-N-(1,2,3,5,6,7-hexahydro-s-indacen-4-yl)-4H-1,2,4-triazol-3-amine] | ≤ 5000 | ≤ 5000 |  |  |  | 
CC(C)(O)C1CCN(S(=O)(=O)c2nnc(Nc3c4c(cc5c3CCC5)CCC4)[nH]2)C1 (stereo not shown) [Example 289, 2-(1-((5-((1,2,3,5,6,7-hexahydro-s-indacen-4-yl)amino)-4H-1,2,4-triazol-3-yl)sulfonyl)pyrrolidin-3-yl)propan-2-ol] | ≤ 1000 | ≤ 5000 |  |  |  | 
O=S(=O)(c1nnc(Nc2c3c(cc4c2CCC4)CCC3)[nH]1)N1CCC(N2CCCC2)CC1 [Example 124, N-(1,2,3,5,6,7-hexahydro-s-indacen-4-yl)-5-((4-(pyrrolidin-1-yl)piperidin-1-yl)sulfonyl)-4H-1,2,4-triazol-3-amine] | ≤ 1000 | ≤ 5000 |  |  |  | 
CCN1CCC12CCN(S(=O)(=O)c1nnc(Nc3c4c(cc5c3CCC5)CCC4)[nH]1)CC2 [Example 257, 5-((1-ethyl-1,7-diazaspiro[35]nonan-7-yl)sulfonyl)-N-(1,2,3,5,6,7-hexahydro-s-indacen-4-yl)-4H-1,2,4-triazol-3-amine] | ≤ 500 | ≤ 500 |  |  |  | 
COc1cc(-c2ccc3c(c2Nc2nnc(S(=O)(=O)c4ccn(C(C)C)n4)[nH]2)CCC3)ccn1 [Example 34, 5-((1-isopropyl-1H-pyrazol-3-yl)sulfonyl)-N-(5-(2-methoxypyridin-4-yl)-2,3-dihydro-1H-inden-4-yl)-4H-1,2,4-triazol-3-amine] | ≤ 1000 | ≤ 5000 |  |  |  | 
O=S(=O)(NCC1CCCCN1)c1nnc(Nc2c3c(cc4c2CCC4)CCC3)[nH]1 (stereo not shown) [Example 132, 5-((1,2,3,5,6,7-hexahydro-s-indacen-4-yl)amino)-N-(piperidin-2-ylmethyl)-4H-1,2,4-triazole-3-sulfonamide] | ≤ 500 | ≤ 10000 |  |  |  | 
CC(C)n1ccc(S(=O)(=O)c2nnc(Nc3c4c(cc5c3CCC5)CCC4)[nH]2)n1 [Example 337, N-(1,2,3,5,6,7-hexahydro-s-indacen-4-yl)-5-((1-isopropyl-1H-pyrazol-3-yl)sulfonyl)-4H-1,2,4-triazol-3-amine] | ≤ 500 |  | 981 | 17 | 35.7 | 0.54
Cc1cc(-c2cc(F)cc(C(C)C)c2Nc2nnc(S(=O)(=O)N3CCC(N(C)C)CC3)[nH]2)ccn1 [Example 302, 1-((5-((4-fluoro-2-isopropyl-6-(2-methylpyridin-4-yl)phenyl)amino)-1H-1,2,4-triazol-3-yl)sulfonyl)-N,N-dimethylpiperidin-4-amine] | ≤ 5000 |  | 153 | 109 | 80.4 | 4.03
Cn1cc(S(=O)(=O)c2nnc(Nc3c4c(cc5c3CCC5)CCC4)[nH]2)cn1 [Example 159, N-(1,2,3,5,6,7-hexahydro-s-indacen-4-yl)-5-((1-methyl-1H-pyrazol-4-yl)sulfonyl)-4H-1,2,4-triazol-3-amine] | ≤ 5000 |  | 2250 | 6.9 | 55.8 | 0.38
COc1cc(-c2ccc3c(c2Nc2nnc(S(=O)(=O)c4ccccc4C#N)[nH]2)CCC3)ccn1 [Example 310, 2-((5-((5-(2-methoxypyridin-4-yl)-2,3-dihydro-1H-inden-4-yl)amino)-4H-1,2,4-triazol-3-yl)sulfonyl)benzonitrile] | ≤ 5000 |  | 221 | 75.4 | 27.5 | 1.45
CN1CCC(Oc2cc(-c3ccc4c(c3Nc3nnc(S(C)(=O)=O)[nH]3)CCC4)ccn2)CC1 [Example 235, N-(5-(2-((1-methylpiperidin-4-yl)oxy)pyridin-4-yl)-2,3-dihydro-1H-inden-4-yl)-5-(methylsulfonyl)-4H-1,2,4-triazol-3-amine] | ≤ 10000 |  | 430 | 38.7 | 130 | 0.935
O=S(=O)(c1ccccc1)c1nnc(Nc2c3c(cc4c2CCC4)CCC3)[nH]1 [Example 40, N-(1,2,3,5,6,7-hexahydro-s-indacen-4-yl)-5-(phenylsulfonyl)-1H-1,2,4-triazol-3-amine] | ≤ 1000 |  | 1460 | 11.4 | 54 | 0.54

The remaining lines, values ahead:

IC50 (NLRP3 [1]) [nM] | IC50 (NLRP3 [2]) [nM] | AUC [3] [ng·h/mL] | clearance [3] [mL/min/kg] | half-life [3] [min] | Vd [3] [L/kg] | SMILES
≤ 500 | ≤ 5000 |  |  |  |  | Cc1cc(-c2ccc3c(c2Nc2nnc(S(=O)(=O)N4CCC(N(C)C)CC4)[nH]2)CCC3)ccn1 [Example 221, N,N-dimethyl-1-((5-((5-(2-methylpyridin-4-yl)-2,3-dihydro-1H-inden-4-yl)amino)-4H-1,2,4-triazol-3-yl)sulfonyl)piperidin-4-amine]
≤ 500 | ≤ 500 |  |  |  |  | CCN(CC)C[C@H]1CCN(S(=O)(=O)c2nnc(Nc3c4c(cc5c3CCC5)CCC4)[nH]2)C1 [Example 144, (R)-5-((3-((diethylamino)methyl)pyrrolidin-1-yl)sulfonyl)-N-(1,2,3,5,6,7-hexahydro-s-indacen-4-yl)-4H-1,2,4-triazol-3-amine]
≤ 500 | ≤ 5000 |  |  |  |  | CN1CCCNC(=O)C12CCN(S(=O)(=O)c1nnc(Nc3c4c(cc5c3CCC5)CCC4)[nH]1)CC2 [Example 294, 3-((5-((1,2,3,5,6,7-hexahydro-s-indacen-4-yl)amino)-4H-1,2,4-triazol-3-yl)sulfonyl)-7-methyl-3,7,11-triazaspiro[5.6]dodecan-12-one]
≤ 500 | ≤ 5000 |  |  |  |  | COc1cc(-c2cc(F)cc(C(C)C)c2Oc2nnc(S(=O)(=O)N3CCC4(CCCN4C)CC3)[nH]2)ccn1 [Example 251, 8-((5-(4-fluoro-2-isopropyl-6-(2-methoxypyridin-4-yl)phenoxy)-4H-1,2,4-triazol-3-yl)sulfonyl)-1-methyl-1,8-diazaspiro[4.5]decane]
≤ 500 | ≤ 5000 |  |  |  |  | CN1CCC12CCN(S(=O)(=O)c1nnc(Nc3c(-c4ccnc(OC(F)F)c4)ccc4c3CCC4)[nH]1)CC2 [Example 200, N-(5-(2-(difluoromethoxy)pyridin-4-yl)-2,3-dihydro-1H-inden-4-yl)-5-((1-methyl-1,7-diazaspiro[3.5]nonan-7-yl)sulfonyl)-4H-1,2,4-triazol-3-amine]
≤ 500 | ≤ 1000 |  |  |  |  | CN1CCCCC1CCS(=O)(=O)c1nnc(Nc2c3c(cc4c2CCC4)CCC3)[nH]1 (stereo not shown) [Example 59, N-(1,2,3,5,6,7-Hexahydro-s-indacen-4-yl)-3-((2-(1-methylpiperidin-2-yl)ethyl)sulfonyl)-1H-1,2,4-triazol-5-amine]
≤ 500 | ≤ 1000 |  |  |  |  | CN(C)C1CCN(S(=O)(=O)c2nnc(Nc3c(-c4ccnc(OC(F)F)c4)ccc4c3CCC4)[nH]2)CC1 [Example 222, 1-((5-((5-(2-(difluoromethoxy)pyridin-4-yl)-2,3-dihydro-1H-inden-4-yl)amino)-4H-1,2,4-triazol-3-yl)sulfonyl)-N,N-dimethylpiperidin-4-amine]
